Results as given in patent US10076576B2, “Minimally toxic prodrugs” (priority 2012, dated 2018).
“Also recorded” adds a separate entry of the source.

Target: T1, FAP (Homo sapiens, UniProt Q12884)
T1 sequence (Q12884 1-760): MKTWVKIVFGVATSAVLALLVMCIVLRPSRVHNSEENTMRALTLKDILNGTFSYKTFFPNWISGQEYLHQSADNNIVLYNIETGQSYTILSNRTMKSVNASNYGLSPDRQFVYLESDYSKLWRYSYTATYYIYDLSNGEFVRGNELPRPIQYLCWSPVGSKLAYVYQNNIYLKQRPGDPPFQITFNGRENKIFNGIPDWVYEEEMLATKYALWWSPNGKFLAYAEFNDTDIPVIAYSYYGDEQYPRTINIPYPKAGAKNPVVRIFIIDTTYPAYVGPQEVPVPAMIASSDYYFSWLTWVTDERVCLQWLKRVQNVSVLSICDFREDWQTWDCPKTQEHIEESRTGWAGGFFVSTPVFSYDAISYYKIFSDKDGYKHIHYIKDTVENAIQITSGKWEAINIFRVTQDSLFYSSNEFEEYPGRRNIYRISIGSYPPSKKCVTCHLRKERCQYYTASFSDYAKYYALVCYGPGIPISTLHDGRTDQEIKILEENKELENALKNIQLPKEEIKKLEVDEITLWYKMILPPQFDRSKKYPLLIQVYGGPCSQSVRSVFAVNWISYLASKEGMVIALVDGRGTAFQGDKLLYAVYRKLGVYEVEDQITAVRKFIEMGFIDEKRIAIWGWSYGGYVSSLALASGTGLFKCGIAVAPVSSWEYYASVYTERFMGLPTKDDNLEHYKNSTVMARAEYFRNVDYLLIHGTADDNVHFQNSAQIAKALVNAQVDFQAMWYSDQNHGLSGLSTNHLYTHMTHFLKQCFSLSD
Experiment: Reactivation assay with purified FAP
Assay type: biochemical
Experimental: TOP (recombinant human thimet oligopeptidase, R&D systems, Ref 3439-ZN) was diluted at 10 nM in a solution of 50 mM Tris-HCl pH 7.4/0.5M NaCl/0.1M DTT. CD26 and FAP were diluted at 1 μg/mL in a Tris-HCl pH 7.5 buffer. Reactions were initiated by addition of 50 μM of each compound to enzymes solutions (1 V enzyme solution+1 V 100 μM drug solution). Samples were incubated for 0, 1, or 3 hours at 37° C. in a water bath in the presence of purified enzymes. Fifty μL of sample were collected at each time point and processed as described above for human plasma. Activation of Suc-βALAL-dox was tested in parallel as a reference.

COc1cccc2c1C(=O)c1c(O)c3c(c(O)c1C2=O)CC(O)(C(=O)CO)CC3OC1CC(NC(=O)C2CCCN2C(=O)CNC(=O)C(CC(C)C)NC(=O)C(C)NC(=O)CP(=O)(O)O)C(O)C(C)O1 (stereo not shown) [PhAc-ALGP-Dox, PhAc-ALGP-doxorubicin]
hydrolysis by FAP (in words): Neither CD26 nor FAP hydrolized; also recorded: did not hydrolyze
